Measurements: ChEMBL document CHEMBL5291721, “A preclinical secondary pharmacology resource illuminates target-adverse drug reaction associations of marketed drugs” (Nat Commun, 2023)

Assays:
[1] = target: T1, Alpha-2A adrenergic receptor (Homo sapiens, UniProt P08913); assay type: functional, cell-based
T1 sequence (P08913 whole entry): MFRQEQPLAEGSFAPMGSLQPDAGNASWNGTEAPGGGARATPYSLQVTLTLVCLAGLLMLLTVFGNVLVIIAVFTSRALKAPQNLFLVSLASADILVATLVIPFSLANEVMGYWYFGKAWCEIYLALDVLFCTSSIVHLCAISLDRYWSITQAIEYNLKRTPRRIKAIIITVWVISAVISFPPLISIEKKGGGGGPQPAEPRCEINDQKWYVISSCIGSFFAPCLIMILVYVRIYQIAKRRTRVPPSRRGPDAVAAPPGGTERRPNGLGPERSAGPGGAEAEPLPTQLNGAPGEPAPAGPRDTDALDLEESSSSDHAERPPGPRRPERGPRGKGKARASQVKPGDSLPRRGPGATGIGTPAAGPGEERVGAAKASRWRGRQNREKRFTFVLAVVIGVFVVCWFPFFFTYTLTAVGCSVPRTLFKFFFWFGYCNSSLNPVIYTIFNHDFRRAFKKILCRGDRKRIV

[2] = target: T2, Gamma-aminobutyric acid receptor subunit alpha-1 (Rattus norvegicus, UniProt P62813); assay type: functional
[3] = target: T2, Gamma-aminobutyric acid receptor subunit alpha-1
[4] = target: 5-hydroxytryptamine receptor 2A (Homo sapiens, UniProt P28223); assay type: functional, cell-based
[5] = target: 5-hydroxytryptamine receptor 2B (Homo sapiens, UniProt P41595); assay type: functional, cell-based
[6] = target: T3, Alpha-1A adrenergic receptor (Homo sapiens, UniProt P35348); assay type: functional, cell-based
T3 sequence (P35348 whole entry): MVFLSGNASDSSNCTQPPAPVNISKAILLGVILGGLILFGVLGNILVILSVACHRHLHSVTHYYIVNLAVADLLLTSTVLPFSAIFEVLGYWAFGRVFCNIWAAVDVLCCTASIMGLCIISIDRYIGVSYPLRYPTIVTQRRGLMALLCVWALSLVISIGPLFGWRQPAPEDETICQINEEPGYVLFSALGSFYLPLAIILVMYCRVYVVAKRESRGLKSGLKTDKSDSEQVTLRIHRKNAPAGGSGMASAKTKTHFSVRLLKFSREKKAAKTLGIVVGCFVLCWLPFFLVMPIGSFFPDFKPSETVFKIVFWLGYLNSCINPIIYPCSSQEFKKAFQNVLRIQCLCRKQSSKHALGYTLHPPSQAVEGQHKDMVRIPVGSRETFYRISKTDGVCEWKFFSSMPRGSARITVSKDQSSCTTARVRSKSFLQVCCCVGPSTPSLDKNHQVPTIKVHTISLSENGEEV
Note: assay procedure not described here.

T2 sequence (P62813 whole entry): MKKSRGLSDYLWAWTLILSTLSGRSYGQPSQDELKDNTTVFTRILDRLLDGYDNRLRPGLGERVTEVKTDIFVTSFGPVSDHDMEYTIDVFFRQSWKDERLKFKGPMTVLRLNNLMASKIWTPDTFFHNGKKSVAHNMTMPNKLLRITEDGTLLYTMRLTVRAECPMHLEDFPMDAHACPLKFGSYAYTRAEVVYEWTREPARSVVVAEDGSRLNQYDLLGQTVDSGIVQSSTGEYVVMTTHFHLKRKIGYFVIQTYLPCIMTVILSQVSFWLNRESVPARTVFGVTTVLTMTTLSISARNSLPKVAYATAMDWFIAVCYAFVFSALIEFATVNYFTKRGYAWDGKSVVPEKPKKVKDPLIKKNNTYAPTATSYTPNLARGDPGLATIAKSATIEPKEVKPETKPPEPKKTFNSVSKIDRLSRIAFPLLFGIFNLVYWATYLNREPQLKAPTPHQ
Sequence of 5-hydroxytryptamine receptor 2B (P41595 whole entry): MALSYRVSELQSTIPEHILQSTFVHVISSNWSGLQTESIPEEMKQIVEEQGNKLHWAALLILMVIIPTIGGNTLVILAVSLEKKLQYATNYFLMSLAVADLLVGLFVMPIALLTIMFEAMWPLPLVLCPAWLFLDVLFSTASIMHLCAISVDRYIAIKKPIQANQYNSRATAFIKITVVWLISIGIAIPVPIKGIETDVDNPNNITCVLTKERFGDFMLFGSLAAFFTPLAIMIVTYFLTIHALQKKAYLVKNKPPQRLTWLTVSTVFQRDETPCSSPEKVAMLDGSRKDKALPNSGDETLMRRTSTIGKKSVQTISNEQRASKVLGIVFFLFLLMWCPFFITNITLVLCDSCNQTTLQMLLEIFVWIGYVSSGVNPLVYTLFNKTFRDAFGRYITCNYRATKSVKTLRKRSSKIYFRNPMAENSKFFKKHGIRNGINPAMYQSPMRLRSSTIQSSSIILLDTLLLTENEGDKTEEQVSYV
Sequence of 5-hydroxytryptamine receptor 2A (P28223 whole entry): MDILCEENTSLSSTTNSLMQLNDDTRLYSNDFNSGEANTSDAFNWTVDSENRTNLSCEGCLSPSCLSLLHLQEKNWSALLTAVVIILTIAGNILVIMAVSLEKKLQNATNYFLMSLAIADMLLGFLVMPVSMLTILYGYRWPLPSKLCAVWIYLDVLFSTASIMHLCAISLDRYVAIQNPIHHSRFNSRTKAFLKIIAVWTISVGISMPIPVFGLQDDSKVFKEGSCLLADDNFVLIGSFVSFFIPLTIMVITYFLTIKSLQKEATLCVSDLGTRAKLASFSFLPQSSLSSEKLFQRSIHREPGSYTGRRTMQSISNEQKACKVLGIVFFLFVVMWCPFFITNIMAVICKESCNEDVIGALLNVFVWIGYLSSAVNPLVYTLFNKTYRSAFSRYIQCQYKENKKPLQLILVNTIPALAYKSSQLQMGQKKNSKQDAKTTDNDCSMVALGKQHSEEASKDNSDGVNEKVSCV

Q: For C[C@]12CC[C@@H]3c4ccc(O)cc4C[C@@H](CCCCCCCCC[S+]([O-])CCCC(F)(F)C(F)(F)F)[C@H]3[C@@H]1CC[C@@H]2O (stereo partly specified) [FULVESTRANT], which AC50 [1] is on record?
A: > 30 µM

Q: And the AC50 [2]?
A: > 30 µM

Q: And the AC50 [3]?
A: > 30 µM

Q: And the AC50 [4]?
A: > 30 µM

Q: And the AC50 [5]?
A: > 30 µM

Q: And the AC50 [6]?
A: > 30 µM

Q: With C[C@]12CCC(=O)C(O)=C1CC[C@@H]1[C@@H]2CC[C@]2(C)C(=O)CC[C@@H]12 [FORMESTANE] as the compound, how does the AC50 [1] read?
A: > 30 µM

Q: And the AC50 [2]?
A: > 30 µM

Q: What about the AC50 [3] of the same compound?
A: > 30 µM

Q: And the AC50 [4]?
A: > 30 µM

Q: And the AC50 [5]?
A: > 30 µM

Q: What about the AC50 [6] of the same compound?
A: > 30 µM

Q: What does the source list for CC(=O)N[C@@H](CS)C(=O)O [ACETYLCYSTEINE]?
A: AC50 [1]: > 30 µM; AC50 [2]: > 30 µM; AC50 [3]: > 30 µM; AC50 [4]: > 30 µM; AC50 [5]: > 30 µM; AC50 [6]: > 30 µM

Q: What does the source list for COc1cc(N)c(Cl)cc1C(=O)NC1CCN(Cc2ccccc2)CC1 [CLEBOPRIDE]?
A: AC50 [1]: 14 µM; AC50 [2]: 0.13 µM; AC50 [3]: > 30 µM; AC50 [4]: 2.4 µM; AC50 [5]: > 30 µM; AC50 [6]: 14 µM

Q: For Cc1cccc(N2CC(CO)OC2=O)c1 (stereo unspecified) [TOLOXATONE], which AC50 [1] is on record?
A: > 30 µM

Q: What about the AC50 [2] of the same compound?
A: > 30 µM

Q: What about the AC50 [3] of the same compound?
A: > 30 µM

Q: And the AC50 [4]?
A: > 30 µM

Q: What about the AC50 [5] of the same compound?
A: > 30 µM

Q: And the AC50 [6]?
A: > 30 µM

Q: With C#C[C@]1(OC(C)=O)CC[C@H]2[C@@H]3CCC4=C/C(=N/O)CC[C@@H]4[C@H]3CC[C@@]21CC [NORGESTIMATE] as the compound, how does the AC50 [1] read?
A: > 30 µM

Q: What about the AC50 [2] of the same compound?
A: > 30 µM

Q: What about the AC50 [3] of the same compound?
A: > 30 µM

Q: And the AC50 [4]?
A: > 30 µM

Q: What about the AC50 [5] of the same compound?
A: > 30 µM

Q: What about the AC50 [6] of the same compound?
A: > 30 µM

Q: For COCC1=C(C(=O)O)N2C(=O)[C@@H](NC(=O)/C(=N\OC)c3csc(N)n3)[C@H]2SC1 [CEFPODOXIME], which AC50 [1] is on record?
A: > 30 µM

Q: What about the AC50 [2] of the same compound?
A: > 30 µM

Q: What about the AC50 [3] of the same compound?
A: > 30 µM

Q: What about the AC50 [4] of the same compound?
A: > 30 µM

Q: What about the AC50 [5] of the same compound?
A: > 30 µM

Q: And the AC50 [6]?
A: > 30 µM

Q: For Clc1ccc2c(N3CCN(CCCN4CCN(c5ccnc6cc(Cl)ccc56)CC4)CC3)ccnc2c1 [PIPERAQUINE], which AC50 [1] is on record?
A: > 30 µM

Q: What about the AC50 [2] of the same compound?
A: > 30 µM

Q: And the AC50 [3]?
A: > 30 µM

Q: What about the AC50 [4] of the same compound?
A: > 30 µM

Q: What about the AC50 [5] of the same compound?
A: > 30 µM

Q: What about the AC50 [6] of the same compound?
A: > 30 µM

Q: Clc1ccc(C(Cn2ccnc2)OCc2ccsc2Cl)c(Cl)c1 (stereo unspecified) [TIOCONAZOLE] was tested. Which AC50 [1] did it give?
A: > 30 µM

Q: And the AC50 [2]?
A: > 30 µM

Q: And the AC50 [3]?
A: > 30 µM

Q: And the AC50 [4]?
A: 19 µM

Q: And the AC50 [5]?
A: > 30 µM

Q: What about the AC50 [6] of the same compound?
A: 3.2 µM

Q: How did the AC50 [1] turn out when CCOC(=O)C1=C[C@]2(CC)CCCN3CCc4c(n1c1ccccc41)[C@@H]32 [VINPOCETINE] was run?
A: 19 µM

Q: What about the AC50 [2] of the same compound?
A: > 30 µM

Q: And the AC50 [3]?
A: > 30 µM

Q: And the AC50 [4]?
A: > 30 µM

Q: What about the AC50 [5] of the same compound?
A: 13 µM

Q: What about the AC50 [6] of the same compound?
A: > 30 µM

Q: How did the AC50 [1] turn out when CCC(C)C(CC)C(N)=O (stereo unspecified) [VALNOCTAMIDE] was run?
A: > 30 µM

Q: And the AC50 [2]?
A: > 30 µM

Q: And the AC50 [3]?
A: > 30 µM

Q: And the AC50 [4]?
A: > 30 µM

Q: And the AC50 [5]?
A: > 30 µM

Q: What about the AC50 [6] of the same compound?
A: > 30 µM

Q: CC1(C)S[C@@H]2[C@H](NC(=O)[C@H](N)c3ccccc3)C(=O)N2[C@H]1C(=O)OCOC(=O)[C@@H]1N2C(=O)C[C@H]2S(=O)(=O)C1(C)C [SULTAMICILLIN] was tested. Which AC50 [1] did it give?
A: > 30 µM

Q: What about the AC50 [2] of the same compound?
A: > 30 µM

Q: What about the AC50 [4] of the same compound?
A: > 30 µM

Q: What about the AC50 [5] of the same compound?
A: > 30 µM

Q: And the AC50 [6]?
A: > 30 µM
